Results from the NIST ThermoML archive (doi:10.1016/j.jct.2005.03.012).

Experiment: molar heat capacity at constant pressure; xn = mol fraction of the nth substance listed
Details: Liquid, Flow calorimetry

CO [methanol] + O
Details | molar heat capacity at constant pressure [J/K/mol]
329.01 K, 5000 kPa, x1 = 0.9 | 88.91
330.62 K, 10000 kPa, x1 = 0.8 | 89.87
330.92 K, 5000 kPa, x1 = 0.8 | 90.19
330.98 K, 2000 kPa, x1 = 0.8 | 89.81
331.74 K, 5000 kPa, x1 = 0.1 | 82.22
332.15 K, 5000 kPa, x1 = 0.7 | 90.68
333.12 K, 10000 kPa, x1 = 0.6 | 90
333.19 K, 5000 kPa, x1 = 0.6 | 90.87
333.43 K, 5000 kPa, x1 = 0.2 | 86.68
333.48 K, 10000 kPa, x1 = 0.2 | 86.18
333.52 K, 2000 kPa, x1 = 0.6 | 90.9
333.71 K, 2000 kPa, x1 = 0.2 | 86.86
333.89 K, 5000 kPa, x1 = 0.5 | 90.43
333.95 K, 5000 kPa, x1 = 0.4 | 89.97
334 K, 5000 kPa, x1 = 0.3 | 88.54
334.08 K, 10000 kPa, x1 = 0.4 | 89.57
334.13 K, 2000 kPa, x1 = 0.4 | 90.16
352.61 K, 5000 kPa, x1 = 0.9 | 95.17
354.08 K, 5000 kPa, x1 = 0.8 | 95.72
354.53 K, 5000 kPa, x1 = 0.1 | 82.78
355.25 K, 5000 kPa, x1 = 0.7 | 96.11
355.71 K, 5000 kPa, x1 = 0.6 | 95.6
355.86 K, 5000 kPa, x1 = 0.5 | 94.46
355.92 K, 5000 kPa, x1 = 0.2 | 87.32
356.11 K, 5000 kPa, x1 = 0.4 | 92.66
356.17 K, 5000 kPa, x1 = 0.3 | 90.87
376.69 K, 5000 kPa, x1 = 0.9 | 102.61
377.42 K, 5000 kPa, x1 = 0.8 | 102.59
377.92 K, 5000 kPa, x1 = 0.1 | 83.23
377.99 K, 5000 kPa, x1 = 0.7 | 101.84
378.34 K, 5000 kPa, x1 = 0.6 | 100.47
378.47 K, 5000 kPa, x1 = 0.5 | 98.56
378.64 K, 5000 kPa, x1 = 0.4 | 96.44
378.77 K, 5000 kPa, x1 = 0.3 | 92.83
378.78 K, 5000 kPa, x1 = 0.2 | 88.72
424.2 K, 5000 kPa, x1 = 0.5 | 107.27
424.22 K, 5000 kPa, x1 = 0.4 | 102.77
424.24 K, 5000 kPa, x1 = 0.7 | 114.48
424.36 K, 10000 kPa, x1 = 0.4 | 101.14
424.4 K, 2000 kPa, x1 = 0.4 | 102.94
424.42 K, 2000 kPa, x1 = 0.6 | 111.49
424.47 K, 5000 kPa, x1 = 0.6 | 111.25
424.53 K, 10000 kPa, x1 = 0.6 | 108.79
424.54 K, 5000 kPa, x1 = 0.8 | 118.06
424.59 K, 2000 kPa, x1 = 0.8 | 118.73
424.59 K, 10000 kPa, x1 = 0.8 | 118.7
424.7 K, 10000 kPa, x1 = 0.2 | 91.26
424.77 K, 2000 kPa, x1 = 0.2 | 92.01
424.89 K, 5000 kPa, x1 = 0.9 | 121.27
424.97 K, 5000 kPa, x1 = 0.3 | 97.58
425.05 K, 5000 kPa, x1 = 0.2 | 91.9
425.68 K, 5000 kPa, x1 = 0.1 | 85.15
437.16 K, 8500 kPa, x1 = 0.6 | 124.31
471.84 K, 10000 kPa, x1 = 0.6 | 122.64
471.87 K, 10000 kPa, x1 = 0.4 | 110.24
472.32 K, 5000 kPa, x1 = 0.4 | 111.75
472.41 K, 8500 kPa, x1 = 0.4 | 110.52
472.56 K, 5000 kPa, x1 = 0.5 | 119.44
472.78 K, 8500 kPa, x1 = 0.2 | 96.55
472.91 K, 5000 kPa, x1 = 0.3 | 104.69
472.98 K, 5000 kPa, x1 = 0.6 | 127.9
473.11 K, 5000 kPa, x1 = 0.7 | 135.08
473.16 K, 5000 kPa, x1 = 0.8 | 143
473.21 K, 10000 kPa, x1 = 0.8 | 135.8
473.53 K, 10000 kPa, x1 = 0.2 | 96.73
473.95 K, 5000 kPa, x1 = 0.9 | 153.78
474.26 K, 5000 kPa, x1 = 0.2 | 96.84
474.27 K, 5000 kPa, x1 = 0.1 | 89.79
474.92 K, 8500 kPa, x1 = 0.8 | 138.52
497 K, 10000 kPa, x1 = 0.2 | 100.23
497 K, 10000 kPa, x1 = 0.4 | 117.78
497.3 K, 8500 kPa, x1 = 0.3 | 109.45
497.56 K, 8500 kPa, x1 = 0.4 | 118.93
497.97 K, 8500 kPa, x1 = 0.2 | 101.63
498.08 K, 8500 kPa, x1 = 0.5 | 128.47
498.33 K, 8500 kPa, x1 = 0.6 | 139.08
498.46 K, 10000 kPa, x1 = 0.6 | 136.33
499.19 K, 8500 kPa, x1 = 0.1 | 92.18
499.79 K, 8500 kPa, x1 = 0.8 | 166.33
499.83 K, 10000 kPa, x1 = 0.8 | 159.51
499.85 K, 8500 kPa, x1 = 0.7 | 152.5
500.37 K, 8500 kPa, x1 = 0.9 | 185.8
507.38 K, 10000 kPa, x1 = 0.2 | 104.52
507.6 K, 10000 kPa, x1 = 0.4 | 122.36
508.54 K, 10000 kPa, x1 = 0.6 | 145.98
508.68 K, 8500 kPa, x1 = 0.1 | 95.38
508.96 K, 8500 kPa, x1 = 0.2 | 103.83
509.5 K, 10000 kPa, x1 = 0.8 | 178.64
509.58 K, 8500 kPa, x1 = 0.4 | 124.67
510.29 K, 8500 kPa, x1 = 0.5 | 137.86
510.32 K, 8500 kPa, x1 = 0.3 | 114.54
511.09 K, 8500 kPa, x1 = 0.8 | 204.86
511.15 K, 8500 kPa, x1 = 0.7 | 175.97
511.4 K, 8500 kPa, x1 = 0.6 | 155.15
511.68 K, 8500 kPa, x1 = 0.9 | 268
513.62 K, 10000 kPa, x1 = 0.5 | 138.48
514.03 K, 10000 kPa, x1 = 0.4 | 126.54
514.03 K, 10000 kPa, x1 = 0.6 | 154.89
514.08 K, 10000 kPa, x1 = 0.3 | 115.36
514.53 K, 10000 kPa, x1 = 0.1 | 95.01
514.91 K, 10000 kPa, x1 = 0.2 | 105.19
514.98 K, 10000 kPa, x1 = 0.9 | 229.95
515.2 K, 10000 kPa, x1 = 0.8 | 198.37
515.25 K, 10000 kPa, x1 = 0.7 | 174.88
515.73 K, 8500 kPa, x1 = 0.1 | 95.69
516.4 K, 8500 kPa, x1 = 0.9 | 508.52
517.62 K, 8500 kPa, x1 = 0.2 | 106.77
517.97 K, 8500 kPa, x1 = 0.3 | 119.14
518.82 K, 8500 kPa, x1 = 0.8 | 303.27
519.33 K, 8500 kPa, x1 = 0.4 | 133.94
519.69 K, 8500 kPa, x1 = 0.7 | 212.23
520.61 K, 8500 kPa, x1 = 0.5 | 150.12
522.42 K, 8500 kPa, x1 = 0.6 | 186.76
